In US20110217740A1, “METHODS, MICROORGANISMS, AND COMPOSITIONS FOR PLANT BIOMASS PROCESSING” (University of Georgia Research, priority 2008, published 2011):

Test system: A. thermophilum
Test: Sensitivity of A. thermophilum to selective agents
Assay type: cell-based, Anaerocellum thermophilum
Settings: selective agent in growth medium
Method: 5× Base Salts: 140.00 g/L NaCl, 17.50 g/L, MgSO4.7H2O, 13.50 g/L MgCl2.6H2O, 1.65 g/L KCl, 1.25 g/L NH4Cl, 0.70 g/L CaCl2.2H2O. Liquid complex cellobiose (CC) media (pH 6.8): 200 mL/L 5× Base salts, 1 mL/L 1000× Trace minerals, 100 μL/L 100 mM Na2WO4*2H2O, 50 μL/L Resazurin (5 mg/mL), 5 mL/L 10% w/v Yeast Extract, 50 mL/L 10% w/v Casein hydrolysate, 35 mL/L 10% w/v Cellobiose, 0.5 g/L Cysteine, 0.5g Na2S, 1 g/L NaHCO3, 1 mL/L 1M K2HPO4 buffer. Solid complex cellobiose (CC) media: 1× media +1% phytagel solution (Sigma Chemical Company, St. Louis, Mo.). CC plates containing 5-fluoroorotic acid (5-FOA): to ensure complete 5-FOA solvation, 1M NaOH is dripped into the solution until a murky consistency is reached at around pH 10, cysteine is then used to lower the pH to 7, where the solution turns transparent. Simvastatin plates: solid complex cellobiose plates with the indicated amount of simvastatin added. A. thermophilum is sensitive to 8 millimolar (mM) 5-FOA, 30 mM hygromycin, 8 micromolar (μM) simvastatin, and 50 μM apramycin.

Compound | concentration to which A. thermophilum is sensitive
CCC(C)(C)C(=O)O[C@H]1C[C@@H](C)C=C2C=C[C@H](C)[C@H](CC[C@@H]3C[C@@H](O)CC(=O)O3)[C@H]21 [simvastatin] | 8 µM
CN[C@@H]1[C@@H](O[C@H]2O[C@H](CO)[C@@H](N)[C@H](O)[C@H]2O)OC2C[C@@H](N)[C@@H](O[C@H]3[C@H](O)[C@@H](O)[C@H](N)C[C@@H]3N)OC2[C@@H]1O (stereo partly drawn) [apramycin] | 50 µM
O=C(O)c1[nH]c(=O)[nH]c(=O)c1F [5-FOA, 5-fluoroorotic acid] | 8000 µM
